Measured values reported in patent US20240043473A1, “NOOTROPIC PEPTIDES FOR TREATING LYSOSOMAL STORAGE DISEASES” (Phoenix Nest Inc., priority 2021, published 2024).
Entries after “also recorded” stand apart in the source; their conditions may differ. No end group written: not given here.

Assays:
Assay type in all cases: in vivo, mouse
[1] = tested on: Hgsnat^P304L MPS IIIC mice; assay: Open Field test; conditions: for Open Field behaviour in WT mice vs saline: chronic daily treatment
Experimental: Method: Open field test that explores behaviour of animals in open area. Rodents normally avoid the center of the arena (anxiety reflex) and spend certain time immobile (freezing reflex). […]
The open-field test was performed as previously described. Briefly, mice were habituated in the experimental room for 45 mins before the commencement of the test. Each mouse was then gently placed in the center of the open-field arena and allowed to explore for 20 min. The mouse was removed and transferred to its home cage after the test, and the arena was cleaned with 70% ethanol before the commencement of the next test. Analysis of the behavioral activity was done using the Smart video tracking software (v3.0, Panlab Harvard Apparatus), and total distance traveled and percent of time spent in the center zone were measured for hyperactivity and anxiety assessment, respectively.
Starting from 3 weeks of age, WT C57B16 and homozygous Hgsnat^P304L male and female mice were randomly divided in treatment and control groups (6-13 mice/sex/genotype/treatment; see Table I). The control group was daily administered with saline (5 μL to each nostril), while for the treatment group, saline was supplemented with 125 µg of AVP6/mL, which would result in a dose of approximately 50 μg/kg BW/day. The peptide formulation was prepared once, aliquoted and kept frozen at −80° C. until use. At 4 months, all mice were studied by EPM, OF, YM and NOR behavioral tests. Administration of the drug or saline was continued through the days on which the assays were conducted. Then approximately at 5 months 4-5 mice in each group were sacrificed. Their blood plasma was collected, and their tissues were either snap-frozen or fixed and cryopreserved to analyze CNS pathology as described above. For the remaining mice, treatment was continued and their behaviour was studied again at the age of 6 months using OF. NOR and YM tests. Starting from the age of 8 months, Hgsnat^P304L treated and untreated mice were daily studied for the signs of urinary retention. When such signs were detected, the mice were studied by ERG and sacrificed within 1-2 days. Finally, the remaining treated and untreated WT mice were studied by ERG and sacrificed at the end of the study, approximately at 10 months of age.
We further tested if AVP6 can rescue neurobehavioral deficits associated with synaptic dysfunction in MPS IIIC mice. The early phase of the disease in both Hgsnat-Geo and Hgsnat^P304L mice manifests with reduced anxiety and hyperactivity. Specifically, in an Open Field (OF) test at both 4 months and 6 months, Hgsnat^P304L mice show a significant increase in a total distance traveled, increased time spent at the center of the arena and increased distance traveled in the center of the arena as compared with the WT animals. […] […] Control groups were treated with the same volume of saline.

BDNF = assay: Mature BDNF levels in dissected hippocampi by Western blot
Experimental: Method: AVP6 was administered intranasally at 50 μg/kg (5 μl/nostril) for 10 consecutive days. After sacrifice, changes in the levels of BDNF, a protein involved in long-term synaptic potentiation and memory consolidation, in the dissected hippocampi of mice were analyzed by Western blots.
The cerebral cortical tissues were homogenized in five volumes of RIPA lysis buffer (50 mM Tris-HCl pH 7.4, 150 mM NaCl, 1% NP-40, 0.25% sodium deoxycholate, 0.1% SDS, 2 mM EDTA, 1 mM PMSF), containing protease and […] inhibitor cocktails (Sigma, cat#4693132001 and 4906837001), using a Dounce homogenizer. The homogenates were kept on ice for 30 min and centrifuged at 13,000 g at 4° C. for 25 min. The supernatant was centrifuged again at 13,000 g for 15 min, the protein concentration in resulting lysates was measured, and 20 μg of protein from each sample was separated by SDS-PAGE on 4-20% precast polyacrylamide gel (Bio-Rad, 4561096). Western blot analyses were performed according to standard protocols using Anti-BDNF and α-tubulin (1:2000, mouse, DSHB) antibodies. Equal protein loading was confirmed by Ponceau S staining and normalized for tubulin immunoreactive band. Detected bands were quantified using ImageJ 1.50i software (National Institutes of Health, Bethesda, MD, USA).

MIP1α = assay: Expression of inflammatory cytokine in brain (real-time qPCR); conditions: chronic daily 50 μg/kg BW; Hgsnat^P304L mice at 5 months; vs saline
Experimental: RNA was isolated from snap-frozen brain, kidney and liver tissues using the TRIzol reagent (Invitrogen) and reverse-transcribed using the iScript™ Reverse Transcription Supermix (Bio RAD #1708840) according to the manufacturer's protocol, qPCR was performed using a LightCycler® 96 Instrument (Roche) and SsoFast™ EvaGreen® Supermix with Low ROX (Bio RAD #1725211) according to the manufacturer's protocol. RLP32 mRNA was used as a reference control.
(§1) Starting from 3 weeks of age, WT C57B16 and homozygous Hgsnat^P304L male and female mice were randomly divided in treatment and control groups (6-13 mice/sex/genotype/treatment; see Table I). The control group was daily administered with saline (5 μL to each nostril), while for the treatment group, saline was supplemented with 125 µg of AVP6/mL, which would result in a dose of approximately 50 μg/kg BW/day. The peptide formulation was prepared once, aliquoted and kept frozen at −80° C. until use. At 4 months, all mice were studied by EPM, OF, YM and NOR behavioral tests. Administration of the drug or saline was continued through the days on which the assays were conducted. Then approximately at 5 months 4-5 mice in each group were sacrificed. […] When such signs were detected, the mice were studied by ERG and sacrificed within 1-2 days. […]

β-hexosaminidase = assay: Total β-hexosaminidase activity in brain homogenates; conditions: chronic daily 50 μg/kg BW, vs saline
Experimental: The activity of β-hexosaminidase was measured by combining 2.5 μl of 10× diluted homogenate ([…] of protein) with 15 μl of 0.1 M sodium acetate buffer (pH 4.2), and 12.5 μl of 3 mM 4-methylumbelliferyl N-acetyl-β-D-glucosaminide (Sigma-Aldrich) followed by incubation for 30 min at 37° C. The reaction was stopped 0.4 M glycine buffer (pH 10.4) and fluorescence was measured as above.
as §1, with “sacrificed. Their blood plasma was collected, and their tissues were either snap-frozen or fixed and cryopreserved to analyze CNS pathology as described above.” for “sacrificed.”

Hgsnat^P304L mice = assay: Survival / onset of lethal urinary retention under chronic daily treatment; conditions: chronic daily 50 μg/kg BW; AVP6-treated Hgsnat^P304L mice
Experimental: as §1
Unlike human MPS III patients, Hgsnat^P304L mice at the age of approximately 8 months develop urinary retention resulting in abdominal distension and requiring humane euthanasia. […] Previously we determined the average survival age of Hgsnat^P304L mice as 42 weeks. To test whether the AVP6 treatment delayed development of this phenotype, mice in both treatment and vehicle groups were examined for the signs of urinary retention on a daily basis, starting from the age of 7 months, and immediately sacrificed, when abdominal distension was detected. […]

[2] = chronic daily intranasal 50 μg/kg BW from 3 weeks, Hgsnat^P304L male and female mice at 4 months
[3] = chronic daily intranasal 50 μg/kg BW from 3 weeks, Hgsnat^P304L mice at 6 months
[4] = single intranasal 50 μg/kg 17 h before test, Hgsnat^P311L (P304L) mice, 4 and 6 months

AVP6: N-terminally acetylated Semax, a nootropic peptide having the amino acid sequence of MEHFPGP (SEQ ID NO:1) (Ac-MEHFPGP)
hyperactivity (total distance traveled), Open Field [1, 2]: showed absence of these phenotypes; also recorded: show the rescue of all above deficits | reduced anxiety (time spent in the center), Open Field [1, 2]: showed absence of these phenotypes; also recorded: show the rescue of all above deficits | hyperactivity (total distance traveled), Open Field [1, 3]: significantly reduced; also recorded: show rescue of all above deficits | reduced anxiety (time spent in the center), Open Field [1, 3]: significantly reduced; also recorded: show rescue of all above deficits | Open Field behaviour in WT mice vs saline ([1]; WT mice at 4 months): no difference was observed | Open Field behaviour in WT mice vs saline ([1]; WT mice at 6 months): No difference in behaviour was observed | hyperactivity (total distance traveled), Open Field [1, 4]: rescues hyperactivity; also recorded: the total traveled distance was reduced; also recorded: Both parameters are normalized | reduced anxiety (time spent / distance traveled in the center), Open Field [1, 4]: rescues hyperactivity and reduced anxiety; also recorded: time spend in the center increased; also recorded: Both parameters are normalized | mature BDNF levels (BDNF; acute (24 h) intranasal administration, MPSIIIC mice): significantly increased | mature BDNF levels in hippocampus (BDNF; intranasal 50 μg/kg daily for 10 days, 4-month-old Hgsnat-Geo mice): significantly increased; also recorded: increases BDNF levels; also recorded: partially restored levels; also recorded: partially rescued | expression levels of inflammatory cytokine MIP1α in the brain (MIP1α): reduced expression levels | total β-hexosaminidase activity in total brain homogenates (β-hexosaminidase; Hgsnat^P304L mice at 5 months): remained similar | total β-hexosaminidase activity in brain homogenates (β-hexosaminidase; Hgsnat^P304L mice at terminal timepoint): trend for reduction | average survival age / life span (Hgsnat^P304L mice): 49 weeks
